Measured values taken from ChEMBL document CHEMBL3885861, “Open TG-GATES”.

Organism: Rattus norvegicus
Experiment: Open TG-GATES - Regimen: Single
Assay type: toxicity, organism-based, Sprague-Dawley
Parameters: regimen Single, gender Male, age 6 weeks
Settings: in vivo, po, 400 mg/kg, route gavage, dose level High; for APTT / Bas / Eos / Fbg / Hb / Ht / Lym / MCH / MCHC / MCV / Mono / Neu / PT / Plat / RBC / Ret / WBC: tissue Blood; for KIDNEY_L / KIDNEY_R / KIDNEY_TOTAL: tissue Kidney; for LIVER: tissue Liver; for ALP / ALT / AST / CRE / DBIL / GLC / IP / K / LDH / Na / RALB / TBIL / TC / TG / TP / gamma-GTP / PL: tissue Plasma

With `CC(C)Cc1ccc(C(C)C(=O)O)cc1` (centres undefined) [IBUPROFEN] as the compound, how does the TERMINAL_BW (3 h) read?
Its TERMINAL_BW is 201.6 g.

What about the APTT (3 h) of the same compound?
Its APTT is 20.6 s.

What about the Bas (3 h) of the same compound?
Its Bas is 0%.

What about the Eos (3 h) of the same compound?
Its Eos is 0.8%.

What about the Fbg (3 h) of the same compound?
Its Fbg is 281.4 mg/dL.

And the Hb (3 h)?
The Hb was 13.2 g/dL.

And the Ht (3 h)?
Its Ht is 39.2%.

What about the Lym (3 h) of the same compound?
The Lym was 77.2%.

What about the MCH (3 h) of the same compound?
The MCH was 21.6 pg.

What about the MCHC (3 h) of the same compound?
Its MCHC is 33.7%.

And the MCV (3 h)?
Its MCV is 64.2 fL.

What about the Mono (3 h) of the same compound?
Its Mono is 1.6%.

What about the Neu (3 h) of the same compound?
Its Neu is 19.8%.

What about the PT (3 h) of the same compound?
Its PT is 15.7 s.

And the Plat (3 h)?
Its Plat is 118.2 x10_4/uL.

And the RBC (3 h)?
The RBC was 610.8 x10_4/ul.

And the Ret (3 h)?
The Ret was 8.1%.

What about the WBC (3 h) of the same compound?
The WBC was 69.4 x10_2/uL.

And the KIDNEY_L (3 h)?
The KIDNEY_L was 0.9 g.

What about the KIDNEY_R (3 h) of the same compound?
The KIDNEY_R was 0.9 g.

And the KIDNEY_TOTAL (3 h)?
Its KIDNEY_TOTAL is 1.8 g.

What about the LIVER (3 h) of the same compound?
Its LIVER is 8.7 g.

And the ALP (3 h)?
The ALP was 1604.2 IU/L.

What about the ALT (3 h) of the same compound?
The ALT was 52.2 IU/L.

What about the AST (3 h) of the same compound?
Its AST is 80.4 IU/L.

And the CRE (3 h)?
The CRE was 0.2 mg/dL.

What about the DBIL (3 h) of the same compound?
The DBIL was 0 mg/dL.

What about the GLC (3 h) of the same compound?
Its GLC is 162 mg/dL.

And the IP (3 h)?
The IP was 9.7 mg/dL.

And the K (3 h)?
The K was 4 meq/L.

What about the LDH (3 h) of the same compound?
The LDH was 264.8 IU/L.

What about the Na (3 h) of the same compound?
Its Na is 140.6 meq/L.

And the RALB (3 h)?
The RALB was 2.7 g/dL.

What about the TBIL (3 h) of the same compound?
Its TBIL is 0.026 mg/dL.

And the TC (3 h)?
Its TC is 69.8 mg/dL.

And the TG (3 h)?
The TG was 37.8 mg/dL.

What about the TP (3 h) of the same compound?
Its TP is 5.3 g/dL.

What about the gamma-GTP (3 h) of the same compound?
The gamma-GTP was 1.4 IU/L.

What about the TERMINAL_BW (6 h) of the same compound?
The TERMINAL_BW was 200.3 g.

What about the APTT (6 h) of the same compound?
Its APTT is 21 s.

What about the Bas (6 h) of the same compound?
Its Bas is 0%.

What about the Eos (6 h) of the same compound?
The Eos was 1%.

What about the Fbg (6 h) of the same compound?
Its Fbg is 283.4 mg/dL.

What about the Hb (6 h) of the same compound?
Its Hb is 13.2 g/dL.

And the Ht (6 h)?
Its Ht is 39.3%.

What about the Lym (6 h) of the same compound?
The Lym was 72.2%.

And the MCH (6 h)?
The MCH was 21.5 pg.

And the MCHC (6 h)?
Its MCHC is 33.7%.

What about the MCV (6 h) of the same compound?
The MCV was 63.9 fL.

What about the Mono (6 h) of the same compound?
The Mono was 2.6%.

And the Neu (6 h)?
The Neu was 23.4%.

And the PT (6 h)?
The PT was 15.5 s.

What about the Plat (6 h) of the same compound?
The Plat was 116.4 x10_4/uL.

What about the RBC (6 h) of the same compound?
The RBC was 614.8 x10_4/ul.

What about the Ret (6 h) of the same compound?
Its Ret is 8.2%.

What about the WBC (6 h) of the same compound?
The WBC was 67.5 x10_2/uL.

What about the KIDNEY_L (6 h) of the same compound?
Its KIDNEY_L is 0.9 g.

And the KIDNEY_R (6 h)?
The KIDNEY_R was 0.9 g.

What about the KIDNEY_TOTAL (6 h) of the same compound?
The KIDNEY_TOTAL was 1.8 g.

And the LIVER (6 h)?
The LIVER was 8.2 g.

And the ALP (6 h)?
The ALP was 1535.4 IU/L.

And the ALT (6 h)?
The ALT was 48.8 IU/L.

What about the AST (6 h) of the same compound?
The AST was 76 IU/L.

What about the CRE (6 h) of the same compound?
Its CRE is 0.2 mg/dL.

And the DBIL (6 h)?
Its DBIL is 0.006 mg/dL.

What about the GLC (6 h) of the same compound?
The GLC was 172.8 mg/dL.

And the IP (6 h)?
The IP was 9.9 mg/dL.

What about the K (6 h) of the same compound?
Its K is 4.2 meq/L.

What about the LDH (6 h) of the same compound?
The LDH was 246.4 IU/L.

What about the Na (6 h) of the same compound?
Its Na is 140.2 meq/L.

And the RALB (6 h)?
Its RALB is 2.9 g/dL.

What about the TBIL (6 h) of the same compound?
Its TBIL is 0.016 mg/dL.

What about the TC (6 h) of the same compound?
Its TC is 62.6 mg/dL.

And the TG (6 h)?
Its TG is 51.8 mg/dL.

And the TP (6 h)?
The TP was 5.3 g/dL.

What about the gamma-GTP (6 h) of the same compound?
The gamma-GTP was 1 IU/L.

What about the TERMINAL_BW (9 h) of the same compound?
The TERMINAL_BW was 204.9 g.

What about the APTT (9 h) of the same compound?
The APTT was 21.6 s.

What about the Bas (9 h) of the same compound?
Its Bas is 0%.

And the Eos (9 h)?
Its Eos is 0.6%.

And the Fbg (9 h)?
The Fbg was 261.4 mg/dL.

What about the Ht (9 h) of the same compound?
The Ht was 39.8%.

And the Lym (9 h)?
The Lym was 63.4%.

What about the MCH (9 h) of the same compound?
Its MCH is 21.3 pg.

What about the MCHC (9 h) of the same compound?
The MCHC was 33.3%.

What about the MCV (9 h) of the same compound?
Its MCV is 63.8 fL.

What about the Mono (9 h) of the same compound?
Its Mono is 3%.

And the Neu (9 h)?
Its Neu is 32.8%.

What about the PT (9 h) of the same compound?
The PT was 15.6 s.

And the Plat (9 h)?
The Plat was 120.1 x10_4/uL.

And the RBC (9 h)?
Its RBC is 624.4 x10_4/ul.

What about the Ret (9 h) of the same compound?
The Ret was 7.8%.

What about the WBC (9 h) of the same compound?
The WBC was 76.3 x10_2/uL.

What about the KIDNEY_L (9 h) of the same compound?
The KIDNEY_L was 0.9 g.

And the KIDNEY_R (9 h)?
The KIDNEY_R was 0.9 g.

What about the KIDNEY_TOTAL (9 h) of the same compound?
The KIDNEY_TOTAL was 1.8 g.

What about the LIVER (9 h) of the same compound?
The LIVER was 8.2 g.

And the ALP (9 h)?
Its ALP is 1623.8 IU/L.

What about the ALT (9 h) of the same compound?
Its ALT is 43.4 IU/L.

And the AST (9 h)?
The AST was 73 IU/L.

And the CRE (9 h)?
The CRE was 0.2 mg/dL.

And the DBIL (9 h)?
Its DBIL is 0.006 mg/dL.

What about the GLC (9 h) of the same compound?
The GLC was 180.4 mg/dL.

What about the IP (9 h) of the same compound?
The IP was 10.2 mg/dL.

What about the K (9 h) of the same compound?
The K was 4.1 meq/L.

What about the LDH (9 h) of the same compound?
Its LDH is 257 IU/L.

And the Na (9 h)?
The Na was 140.8 meq/L.

What about the PL (9 h) of the same compound?
Its PL is 97.4 mg/dL.

And the RALB (9 h)?
The RALB was 2.8 g/dL.

And the TBIL (9 h)?
The TBIL was 0.016 mg/dL.

And the TC (9 h)?
Its TC is 53.6 mg/dL.

What about the TG (9 h) of the same compound?
The TG was 46.4 mg/dL.

What about the TP (9 h) of the same compound?
Its TP is 5 g/dL.

What about the gamma-GTP (9 h) of the same compound?
The gamma-GTP was 1 IU/L.

What about the TERMINAL_BW (24 h) of the same compound?
Its TERMINAL_BW is 209.2 g.

What about the APTT (24 h) of the same compound?
The APTT was 21.1 s.

What about the Bas (24 h) of the same compound?
The Bas was 0%.

And the Eos (24 h)?
The Eos was 0.6%.

What about the Fbg (24 h) of the same compound?
Its Fbg is 375.8 mg/dL.

And the Hb (24 h)?
Its Hb is 13.1 g/dL.

And the Ht (24 h)?
The Ht was 38.2%.

What about the Lym (24 h) of the same compound?
The Lym was 57.2%.

What about the MCHC (24 h) of the same compound?
The MCHC was 34.3%.

And the MCV (24 h)?
The MCV was 61.7 fL.

And the Mono (24 h)?
The Mono was 4.2%.

What about the Neu (24 h) of the same compound?
Its Neu is 36.2%.

And the PT (24 h)?
Its PT is 16.1 s.

What about the RBC (24 h) of the same compound?
The RBC was 619.4 x10_4/ul.

What about the Ret (24 h) of the same compound?
The Ret was 6.8%.

What about the KIDNEY_L (24 h) of the same compound?
The KIDNEY_L was 0.9 g.

What about the KIDNEY_R (24 h) of the same compound?
The KIDNEY_R was 1 g.

What about the KIDNEY_TOTAL (24 h) of the same compound?
The KIDNEY_TOTAL was 1.9 g.

And the LIVER (24 h)?
Its LIVER is 10.1 g.

What about the ALP (24 h) of the same compound?
The ALP was 1531.4 IU/L.

And the ALT (24 h)?
The ALT was 44 IU/L.

What about the AST (24 h) of the same compound?
Its AST is 72.6 IU/L.

What about the CRE (24 h) of the same compound?
The CRE was 0.2 mg/dL.

And the DBIL (24 h)?
The DBIL was 0.004 mg/dL.

What about the GLC (24 h) of the same compound?
The GLC was 175.2 mg/dL.

And the IP (24 h)?
Its IP is 7.5 mg/dL.

And the K (24 h)?
Its K is 4.3 meq/L.

What about the LDH (24 h) of the same compound?
Its LDH is 212.4 IU/L.

And the Na (24 h)?
The Na was 141 meq/L.

What about the PL (24 h) of the same compound?
Its PL is 129.4 mg/dL.

What about the RALB (24 h) of the same compound?
Its RALB is 2.7 g/dL.

What about the TBIL (24 h) of the same compound?
Its TBIL is 0.002 mg/dL.

And the TG (24 h)?
Its TG is 104.2 mg/dL.

What about the TP (24 h) of the same compound?
Its TP is 4.9 g/dL.

And the gamma-GTP (24 h)?
The gamma-GTP was 1 IU/L.
